Results reported in patent US20200085776A1, “Methods of Reducing C-Reactive Protein and/or Treating Cardiovascular Disease” (CARDAX, INC., priority 2018, published 2020).

System: C-reactive protein (CRP)
Test: CRP (hs-CRP) in blood, CHASE clinical study
Type: in vivo, human
Conditions: Group Z 48 mg BID; for CRP Max / CRP Mean (SD) / CRP Median / CRP Min: V6 Week 12
Description: This is a two-part study comprising Part I and Part II. Following screening, Part I consists of a randomized, double-blind, placebo controlled dosing period of up to 12 weeks. The study shall be conducted at one or more study sites in Hawaii. Approximately 360 subjects qualified after completion of screening procedures shall be randomized in a 1:1:1 ratio to one of three treatment groups, per Table 1.
The Part I 12-week double-blind dosing period commences with V2, including randomization and first dose of study product, and continues with study visits at Week 1-2 (V3), Week 4 (V4), Week 8 (V5), and Week 12 (V6). V6 procedures will conclude Part I.
Blood shall be obtained at each visit for CRP. The screening specimen shall be processed at the local lab and reported to the study staff for eligibility determination; CRP samples at V7 and V8 may also be processed locally and reported directly to study staff. Samples for CRP from V2 through V6 may be batched, processed, and reported as specified in the Laboratory Manual.
At each these visits, blood was obtained for measurement of CRP, among other parameters. Table 7A provides a summary of the CRP measurements (mg/L) at each visit and Table 7B provides a summary of the differences of CRP levels between V2 and V6.

[1] = subjects with DM2, hypertension and hyperlipidemia but not CAD
[2] = subjects with Diabetes Mellitus Type II
[3] = subjects with baseline level greater than 2.0
[4] = baseline to Week 12, all subjects
[5] = baseline to Week 12, subjects not taking a hypertension agent
[6] = baseline to Week 12, subjects not taking any cardiac therapeutic agent
[7] = baseline to Week 12, subjects not taking statins
[8] = baseline to Week 12, subjects taking an anti-diabetic agent
[9] = baseline to Week 12, subjects with CAD
[10] = baseline to Week 12, subjects with DM2, hypertension and hyperlipidemia but not CAD
[11] = baseline to Week 12, subjects with Diabetes Mellitus Type II
[12] = baseline to Week 12, subjects with baseline level greater than 2.0
[13] = baseline to Week 12, subjects with hyperlipidemia

For `CC1=C(/C=C/C(C)=C/C=C/C(C)=C/C=C/C=C(C)/C=C/C=C(C)/C=C/C2=C(C)C(=O)C(O)CC2(C)C)C(C)(C)CC(O)C1=O` (stereo not drawn) [Astaxanthin, astaxanthin], the “CRP Max” value [1] was 6.14 mg/L, the “CRP Mean (SD)” value [1] was 3.38 (1.57) mg/L and the “CRP Median” value [1] was 2.58 mg/L. The “CRP Min” value [1] was 2.48 mg/L, the “CRP Max” value [2] was 8.84 mg/L and the “CRP Mean (SD)” value [2] was 3.77 (2.70) mg/L. For the same compound, the “CRP Median” value [2] was 2.56 mg/L, the “CRP Min” value [2] was 0.61 mg/L and the “CRP Max” value [3] was 8.84 mg/L. For the same compound, the “CRP Mean (SD)” value [3] was 3.88 (2.42) mg/L, the “CRP Median” value [3] was 2.89 mg/L and the “CRP Min” value [3] was 0.61 mg/L. For the same compound, the “CRP Max” value (subjects with hyperlipidemia) was 6.14 mg/L, the “CRP Mean (SD)” value (subjects with hyperlipidemia) was 2.54 (1.29) mg/L and the “CRP Median” value (subjects with hyperlipidemia) was 2.31 mg/L. For the same compound, the “CRP Min” value (subjects with hyperlipidemia) was 0.61 mg/L, the “CRP V2 to V6 % Change Max” value [4] was 81.89% and the “CRP V2 to V6 % Change Mean” value [4] was −8.48%. For the same compound, the “CRP V2 to V6 % Change Median” value [4] was −27.9%, the “CRP V2 to V6 % Change Min” value [4] was −90.9% and the “CRP V2 to V6 Change Max” value [4] was 2.58 mg/L. The “CRP V2 to V6 Change Mean” value [4] was -0.87 mg/L, the “CRP V2 to V6 Change Median” value [4] was -0.65 mg/L and the “CRP V2 to V6 Change Min” value [4] was -6.07 mg/L. The “CRP V2 to V6 % Change Max” value [5] was −4.25%, the “CRP V2 to V6 % Change Mean (SD)” value [5] was −30.8 (26.09) % and the “CRP V2 to V6 % Change Median” value [5] was −31.8%. For the same compound, the “CRP V2 to V6 % Change Min” value [5] was −56.4%, the “CRP V2 to V6 Change Max” value [5] was -0.11 mg/L and the “CRP V2 to V6 Change Mean (SD)” value [5] was −1.58 (1.32) mg/L. For the same compound, the “CRP V2 to V6 Change Median” value [5] was -2.00 mg/L, the “CRP V2 to V6 Change Min” value [5] was -2.64 mg/L and the “CRP V2 to V6 % Change Max” value [6] was 71.27%. For the same compound, the “CRP V2 to V6 % Change Mean (SD)” value [6] was −23.7 (41.82) %, the “CRP V2 to V6 % Change Median” value [6] was −31.5% and the “CRP V2 to V6 % Change Min” value [6] was −90.9%. For the same compound, the “CRP V2 to V6 Change Max” value [6] was 1.29 mg/L, the “CRP V2 to V6 Change Mean (SD)” value [6] was −1.42 (2.01) mg/L and the “CRP V2 to V6 Change Median” value [6] was -1.24 mg/L. For the same compound, the “CRP V2 to V6 Change Min” value [6] was -6.07 mg/L, the “CRP V2 to V6 % Change Max” value [7] was 19.13% and the “CRP V2 to V6 % Change Mean (SD)” value [7] was −14.9 (28.11) %. The “CRP V2 to V6 % Change Median” value [7] was −17.6%, the “CRP V2 to V6 % Change Min” value [7] was −56.4% and the “CRP V2 to V6 Change Max” value [7] was 0.80 mg/L. For the same compound, the “CRP V2 to V6 Change Mean (SD)” value [7] was −0.81 (1.42) mg/L, the “CRP V2 to V6 Change Median” value [7] was -0.71 mg/L and the “CRP V2 to V6 Change Min” value [7] was -2.64 mg/L. The “CRP V2 to V6 % Change** Max” value [8] was 81.89%, the “CRP V2 to V6 % Change** Mean (SD)” value [8] was −16.9 (49.24) % and the “CRP V2 to V6 % Change** Median” value [8] was −30.7%. The “CRP V2 to V6 % Change** Min” value [8] was −90.9%, the “CRP V2 to V6 Change Max” value [8] was 2.58 mg/L and the “CRP V2 to V6 Change Mean (SD)” value [8] was −1.18 (2.36) mg/L. The “CRP V2 to V6 Change Median” value [8] was -1.14 mg/L, the “CRP V2 to V6 Change Min” value [8] was -6.07 mg/L and the “CRP V2 to V6 % Change Max” value [9] was 81.89%. The “CRP V2 to V6 % Change Mean (SD)” value [9] was −28.8 (65.35) %, the “CRP V2 to V6 % Change Median” value [9] was −39.7% and the “CRP V2 to V6 % Change Min” value [9] was −90.9%. The “CRP V2 to V6 Change Max” value [9] was 1.04 mg/L, the “CRP V2 to V6 Change Mean (SD)” value [9] was −1.91 (2.67) mg/L and the “CRP V2 to V6 Change Median” value [9] was -1.24 mg/L. The “CRP V2 to V6 Change Min” value [9] was -6.07 mg/L, the “CRP V2 to V6 % Change Max” value [10] was −4.25% and the “CRP V2 to V6 % Change Mean (SD)” value [10] was −32.6 (18.99) %. The “CRP V2 to V6 % Change Median” value [10] was −30.7%, the “CRP V2 to V6 % Change Min” value [10] was −50.4% and the “CRP V2 to V6 Change Max” value [10] was -0.11 mg/L. For the same compound, the “CRP V2 to V6 Change Mean (SD)” value [10] was −1.87 (1.24) mg/L, the “CRP V2 to V6 Change Median” value [10] was -2.37 mg/L and the “CRP V2 to V6 Change Min” value [10] was -3.24 mg/L. The “CRP V2 to V6 % Change Max” value [11] was 81.89%, the “CRP V2 to V6 % Change Mean (SD)” value [11] was −14.7 (47.59) % and the “CRP V2 to V6 % Change Median” value [11] was −29.3%. For the same compound, the “CRP V2 to V6 % Change Min” value [11] was −90.9%, the “CRP V2 to V6 Change Max” value [11] was 2.58 mg/L and the “CRP V2 to V6 Change Mean (SD)” value [11] was −1.01 (2.32) mg/L. For the same compound, the “CRP V2 to V6 Change Median” value [11] was -0.90 mg/L, the “CRP V2 to V6 Change Min” value [11] was -6.07 mg/L and the “CRP V2 to V6 % Change Max” value [12] was 48.77%. For the same compound, the “CRP V2 to V6 % Change Mean (SD)” value [12] was −24.8 (35.03) %, the “CRP V2 to V6 % Change Median” value [12] was −31.1% and the “CRP V2 to V6 % Change Min” value [12] was −90.9%. For the same compound, the “CRP V2 to V6 Change Max” value [12] was 2.58 mg/L, the “CRP V2 to V6 Change Mean (SD)” value [12] was −1.37 (2.11) mg/L and the “CRP V2 to V6 Change Median” value [12] was -1.54 mg/L. The “CRP V2 to V6 Change Min” value [12] was -6.07 mg/L, the “CRP V2 to V6 % Change Max” value [13] was 81.89% and the “CRP V2 to V6 % Change Mean (SD)” value [13] was −13.6 (49.58) %. For the same compound, the “CRP V2 to V6 % Change Median” value [13] was −30.7%, the “CRP V2 to V6 % Change Min” value [13] was −90.9% and the “CRP V2 to V6 Change Max” value [13] was 1.29 mg/L. The “CRP V2 to V6 Change Mean (SD)” value [13] was −1.24 (1.95) mg/L, the “CRP V2 to V6 Change Median” value [13] was -1.14 mg/L and the “CRP V2 to V6 Change Min” value [13] was -6.07 mg/L.
